The target in assay [1] is Syk (356-635 amino acids) catalytic domain (Homo sapiens (Human), UniProt P43405). Briefly: Inhibition of enzymatic Syk kinase activity (radiometric). In kind it is biochemical. The note with it: read-out: IC50 Syk. In outline: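 Human Syk (356-635) kinase domain (0.035–7.5 ng/reaction) preincubated with compound 30 minutes at room temperature, then reacted with pG4T substrate, 100 μM ATP (stock) and γ-32P-ATP for 10 minutes at 30° C. Reaction stopped with HCl/ATP, spotted on P81 paper, washed and counted by scintillation. Percent inhibition versus no-compound counts.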

For another assay, the target named is JAK2 (Homo sapiens (Human), UniProt O60674). Briefly: Inhibition of enzymatic JAK2 kinase activity (TR-FRET). The format is biochemical. Conditions: read-out: IC50 JAK. In outline: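 Enzyme preincubated with compound 30 min at RT, then Ulight-poly-GT substrate and ATP added for 60 min at RT. EDTA stop, Eu-antiphosphotyrosine antibody; TR-FRET ratio 665/615 nm (ex 340 nm), blank-corrected; % inhibition versus positive control.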
(In general: In TR-FRET formats the signal depends on donor and acceptor labels being close together.)

In the next assay the test system is RBL2H3 cells. Nature of the assay: Degranulation assay: β-hexosaminidase release during immune complex mediated degranulation. The format is cell-based, rat. Conditions: Rattus norvegicus, RBL-2H3, Assay Protocol B (96 well format); for inhibition at 1 µM: read-out: Degranulation % inhibition at 1 μM; for EC50: read-out: Degranulation EC50. In outline:
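RBL2H3 cells sensitized overnight (or 24 h) with anti-DNP rat IgE, pretreated 15 min with compounds in 0.5% DMSO, then challenged with DNP-BSA for 45–60 min. β-Hexosaminidase in supernatant read fluorometrically (Ex 355/Em 460 nm) with β-NAG substrate, 30 min RT; % release/inhibition calculated.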

Assay [2] has as its system Collagen Induced Arthritis (CIA) in female Lewis rats. Nature of the assay: In vivo chronic study: Collagen Induced Arthritis (CIA). Further details: species or system rat. The note with it: 0.5 mg/Kg. The text has this: Collagen Induced Arthritis (CIA) is a well characterized model of human rheumatoid arthritis (RA) that can be induced in susceptible animals following immunization with type II collagen (cII) in Freund's adjuvant. […] Pathophysiology of CIA consists of T cell component, as evidenced by increased infiltration of T-cells in joint synovium and also, by attenuation of CIA in T-cell deficient mice. CIA development involves B cell component too, as is evidenced by circulating cII antibody in disease animals and also, failure to develop the disease in xid mice/B cell deficient mice/CXCR5 null mice. […] See, Pine, “Inflammation and bone erosion are suppressed in models of rheumatoid arthritis following treatment with a novel Syk inhibitor”, Clin. Immunol., 2007, 124(3):244-57; Xiong cha, “Suppression of the onset and progression of collagen-induced arthritis in rats by QFGJS, a preparation from an anti-arthritic Chinese herbal formula”, J. Ethnopharmacology (2007) 110:39-48; and Stolina, “The evolving systemic and local biomarker milieu at different stages of disease progression in rat collagen induced arthritis”, Biomarkers (2008) 13(7-8):692-712, which are herein incorporated by reference.
Female Lewis rats (8 per group, 6-8 weeks old) were immunized on day 1 with type II collagen (Immunization grade Bovine type II; Chondrex; Cat #20021) emulsified with Complete Freund's Adjuvant (Sigma; Cat# F5881) at a final concentration of 1.2 mg/mL). For the initial immunization, the animals were injected at the base of the tail with 300 μg of the cII (0.25 mL/rat). A booster injection of the same type II collagen emulsified with Incomplete Freund's Adjuvant (Sigma, Cat #F5506) (0.25 mL/rat) was given to the animals on day 8 at the base of the tail (100 μg). The final cII concentration in the booster was […].
Animals with an arthritic score of ≥1 were grouped and dosing with test compound (30 mg/kg bid) or methotrexate (0.5 mg/kg) started between about day 12 to day 14, with daily dosing of their respective compounds continuing for 10 days.
Edema: Paw volumes are measured by Plethysmometry for the animals before induction of CIA (Basal readings) and on Day 1, 3, 6 and 9 of dosing period. Both hind paw volumes were measured and edema was calculated by subtracting from the basal mean.
Arthritic score: Animals were scored for the symptoms of arthritis every day starting from Day of onset of disease till the end of the study. Both the hind paws were scored and the total scores were averaged and compared with control. The scoring pattern was as follows:
The percent inhibition of Edema was calculated with respect to control by the formula: […]
The percent inhibition of Arthritic score was calculated with respect to control by the formula: […]
Means of different groups were compared with control using one way ANOVA followed by Dunnett's test. Significance is represented as follows.

Molecules are shown by their SMILES. Counter-ions that a name gives are not always drawn. A value given as a limit tells only on which side of the number the result lay.

JAK2, sequence (O60674 808-1132): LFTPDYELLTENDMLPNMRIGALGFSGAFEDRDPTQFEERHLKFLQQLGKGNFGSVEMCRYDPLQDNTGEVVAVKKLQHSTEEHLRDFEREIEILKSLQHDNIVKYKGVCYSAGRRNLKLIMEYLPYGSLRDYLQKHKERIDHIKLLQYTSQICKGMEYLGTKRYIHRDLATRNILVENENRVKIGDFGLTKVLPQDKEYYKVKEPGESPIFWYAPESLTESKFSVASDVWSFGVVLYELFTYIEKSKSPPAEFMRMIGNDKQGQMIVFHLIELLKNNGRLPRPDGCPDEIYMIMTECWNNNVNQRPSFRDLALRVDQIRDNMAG

Broadly, the IC50 is the point on the concentration scale where inhibition reaches its midpoint. Usually inhibition stands for the drop in the measured response relative to a control, in per cent. Usually EC50 stands for the midpoint of the concentration-response curve. As for `COC1CCN(c2ccc(Nc3nc(N4CCC(CC#N)CC4)nc4cn[nH]c(=O)c34)cc2)CC1` [Example 287, 2-(1-(4-((4-(4-methoxypiperidin-1-yl)phenyl)amino)-5-oxo-5,6-dihydropyrimido[4,5-d]pyridazin-2-yl)piperidin-4-yl)acetonitrile], the IC50 in assay [1] was under 0.05 µM. Further, on JAK2, the IC50 was under 0.05 µM. In addition, in the assay on RBL2H3 cells, the inhibition at 1 µM stood at 97% and the EC50 stood at 0.02 µM.

Turning to `O=c1[nH]ncc2nc(N3CCCCCC3)nc(Nc3ccc(OC4CCNCC4)cc3)c12` [Example 292, 2-(azepan-1-yl)-4-((4-(piperidin-4-yloxy)phenyl)amino)pyrimido[4,5-d]pyridazin-5(6H)-one hydrochloride], the IC50 (in assay [1]; on JAK2) was under 0.01 µM throughout. Besides, the inhibition at 1 µM with RBL2H3 cells is 65%. For the same molecule, the EC50 in the assay on RBL2H3 cells was 0.083 µM.

With `CC(C)(CO)N1CCCN(c2ccc(Nc3nc(N4CCC(CC#N)CC4)nc4cn[nH]c(=O)c34)cc2)CC1` [Example 297, 2-(1-(4-((4-(4-(1-hydroxy-2-methylpropan-2-yl)-1,4-diazepan-1-yl)phenyl)amino)-5-oxo-5,6-dihydropyrimido[4,5-d]pyridazin-2-yl)piperidin-4-yl)acetonitrile], in assay [1], the IC50 is under 0.01 µM. Further, the IC50 at JAK2 was under 0.05 µM. Moreover, in the assay on RBL2H3 cells, the inhibition at 1 µM is 99% and the EC50 worked out at 0.018 µM.

`O=C(O)CCc1ccc(Nc2nc(N3CCCCCC3)nc3cn[nH]c(=O)c23)cc1` [Example 304, 3-(4-((2-(azepan-1-yl)-5-oxo-5,6-dihydropyrimido[4,5-d]pyridazin-4-yl)amino)phenyl)propanoic acid]: the IC50 in assay [1] was under 0.01 µM. The IC50 at JAK2 was under 0.01 µM. Moreover, in the assay on RBL2H3 cells, the inhibition at 1 µM is 70% and the EC50 came to 0.055 µM.

For the molecule `N#CCC1CCN(c2nc(Nc3ccc(CCC(=O)O)cc3)c3c(=O)[nH]ncc3n2)CC1` [Example 305, 3-(4-((2-(4-(cyanomethyl)piperidin-1-yl)-5-oxo-5,6-dihydropyrimido[4,5-d]pyridazin-4-yl)amino)phenyl)propanoic acid], in assay [1], the IC50 was under 0.01 µM. The IC50 on JAK2 is under 0.05 µM. Besides, in the assay on RBL2H3 cells, the inhibition at 1 µM was 17% and the EC50 came out at 0.834 µM.

Consider `O=c1[nH]ncc2nc(N3CCCCCC3)nc(Nc3ccc(N(CCO)CCO)cc3)c12` [Example 306, 2-(azepan-1-yl)-4-((4-(bis(2-hydroxyethyl)amino)phenyl)amino) pyrimido[4,5-d]pyridazin-5(6H)-one], for which the IC50 (in assay [1]; on JAK2) was under 0.01 µM each time. Moreover, the inhibition at 1 µM in the assay on RBL2H3 cells stood at 100%. Further, the EC50 in the assay on RBL2H3 cells was 0.015 µM.

Consider `N#CCC1CCN(c2nc(Nc3ccc(N(CCO)CCO)cc3)c3c(=O)[nH]ncc3n2)CC1` [Example 307, 2-(1-(4-((4-(bis(2-hydroxyethyl)amino)phenyl)amino)-5-oxo-5,6-dihydropyrimido[4,5-d]pyridazin-2-yl)piperidin-4-yl)acetonitrile], for which the IC50 in assay [1] is under 0.01 µM. The half-inhibitory concentration (IC50) on JAK2 is under 0.01 µM. Besides, in the assay on RBL2H3 cells, the inhibition at 1 µM came to 14% and the EC50 came to 0.312 µM.

In the case of `O=c1[nH]ncc2nc(N3CCCCCC3)nc(Nc3ccc(OC4CCN(CCO)CC4)cc3)c12` [Example 329, 2-(azepan-1-yl)-4-((4-((1-(2-hydroxyethyl)piperidin-4-yl)oxy)phenyl)amino) pyrimido[4,5-d]pyridazin-5(6H)-one], the IC50 in assay [1] is under 0.01 µM. Further, on JAK2, the IC50 was under 0.01 µM. For the same molecule, in the assay with RBL2H3 cells, the inhibition at 1 µM came out at 69% and the EC50 is 0.062 µM.

As for `O=c1[nH]ncc2nc(N3CCCCCC3)nc(Nc3ccc4[nH]nnc4c3)c12` [Example 339, 4-((1H-benzo[d][1,2,3]triazol-5-yl)amino)-2-(azepan-1-yl)pyrimido[4,5-d]pyridazin-5(6H)-one], in assay [1], the IC50 is under 0.01 µM. In addition, the IC50 at JAK2 was under 0.05 µM. In addition, in the assay on RBL2H3 cells, the inhibition at 1 µM amounted to 83% and the EC50 worked out at 0.031 µM.

Regarding `CN(Cc1cnc2nc(N)nc(N)c2n1)c1ccc(C(=O)N[C@@H](CCC(=O)O)C(=O)O)cc1` [Methotrexate, methotrexate, reference compound], the “Percent inhibition of Edema (Day 9 of dosing)” value in assay [2] (Day 9 of dosing) is on record as 6. For the same molecule, the “Percent inhibition of Arthritic score (Day 10 of dosing)” value in assay [2] (Day 10 of dosing) amounted to 15.

The record behind these values is patent US10183944B2 (Asana Biosciences, LLC, priority 2011, dated 2019).
